This is an account of results in patent publication US10759865B2, “Treatment of diabetes mellitus” (priority 2017, dated 2020).

This experiment deals with patient diagnosed with IDDM. As to the kind of experiment: treatment of a IDDM patient, blood IDDM markers over time. Type of experiment: in vivo, human. How it is done:
A patient diagnosed with IDDM was treated with 8 units of exogenous long-acting insulin per day (administered in the evening) and 1 unit of short-acting insulin per 6 grams of carbohydrate food intake (administered before each meal).
Specific stimulation high-carb diet was introduced occasionally to monitor the patient's pancreatic ability to respond to the glycemic demands.
Each IVIG dose was administered in one continuous infusion session. From week 16 to week 42, the patient was also treated with alpha one antitrypsin.
Throughout the patient's treatment, the patient's blood was drawn at the time points indicated in Tables 1-2 below, and analyzed by established testing laboratories with respect to standard IDDM blood parameters (see Tables 1-2, top row of each table listing the markers assayed; the numerical values in parenthesis after some of the markers indicate normal reference levels).
The patient was dosed at 750 mg intravenously on weeks 87, 88, 89 and 90.
Tables 1 and 2 describe the same treatment but include data points with respect to different markers tested.

The structures appear in SMILES notation.

Turning to `C[C@@H]1CCN(C(=O)CC#N)C[C@@H]1N(C)c1ncnc2[nH]ccc12` [Tofacitinib], the “overall weight and muscle mass” value (about 10 months post initiation of tofacitinib treatment) is “gained overall weight and muscle mass”. Also, the auto-antibody blood titers entry (about 10 months post initiation, tofacitinib before IVIG) is on record as “no further change”. Moreover, under “human, in vivo”, the “combination effect of tofacitinib treatment and IVIG treatment” value was “synergistic effect”. Also, the “need for short-acting insulin” value (starting three days post initiation, 5 mg twice-daily (free base)) is given as “did not receive any short-acting insulin”. In addition, the “need for exogenous insulin” value (starting three weeks post initiation, 5 mg twice-daily (free base)) was “did not receive any exogenous insulin”. Also, the “pancreatic islet-cell auto-antibodies and anti-insulin auto-antibodies” value (upon treatment with tofacitinib (Table 1)) is reported as “reduction”.
